Reference: patent US8697033B2, “Modified pyrazine derivatives and uses thereof” (Medibeacon, LLC, priority 2008, dated 2014)
Marks after values point to notes of the source that are not given here.

Experiments:
[1] = Photophysical properties (excitation and emission maxima in PBS); type: physicochemical; conditions: 10 μM solution in PBS
Protocol: 3.2. Photophysical properties and protein binding. In general, renally excretable compounds are dissolved in PBS buffer to form a 2 mM stock solution. The UV absorbance properties are determined on a 100 μM solution in PBS using a UV-3101PC UV-Vis-NIR Scanning spectrophotometer system from Shimadzu. The fluorescence properties (λex, λem, and CPS at λem) are determined on a 10 μM solution in PBS using a Fluorolog-3 spectrofluorometer system from Jobin Yvon Horiba. The percent plasma protein binding are determined on a 20 μM compound solution in rat plasma incubated at 37° C. for 1 h. The separation of free from bound is made using an Amicon Centrifree YM-30 device (Regenerated Cellulose 30,000 MWCO) and a Z400K Refrigerated Universal Centrifuge from Hermle. The concentration of protein-free is determined via HPLC analysis using a set of external calibration standards and fluorescence detection.

[2] = Urine elimination studies; type: in vivo, Sprague-Dawley rats; conditions: rat, 1 mL of 2 mM in PBS by tail vein injection, 6 h post injection; mean ± SEM
Protocol: 3.3. Urine elimination studies. Rat urine elimination studies are conducted in either conscious or anesthetized Sprague-Dawley rats. The test compound (1 mL, 2 mM in PBS) is administered by tail vein injection into conscious, restrained rats, with subsequent collection of urine at the time points of 2, 4 and 6 h post injection. The metabolic cages are washed with water to maximize the recovery of urine discharged at each time point. Alternatively, rats are anesthetized with 100 mg/kg Inactin intraperitoneally, a trachea tube is inserted to maintain adequate respiration, and 1 mL of test compound is injected into the lateral tail vein. Rats are placed on 37° C. heating pad during the entire experiment. At 6 h post injection, the abdomen is opened, and the urine is removed from the bladder using a 21 gauge needle and a 3 cc syringe. Quantitation of each compound in urine is performed via HPLC analysis using a set of external calibration standards and fluorescence detection. The percent recovery of compound in urine at each time point is calculated based on the balance of mass.

[3] = Non-invasive optical pharmacokinetic studies (fluorescence at the ear); type: in vivo, Sprague-Dawley rats; conditions: rat, 1 mL of 2 mM solution into tail vein, fluorescence monitored at the ear; mean ± SEM
Protocol: 3.4. Non-Invasive optical pharmacokinetic studies. Male Sprague-Dawley rats (330-380 g) are anesthetized by Inactin (I.P.) or 2% Isoflurane gas anesthesia delivered by a small rodent gas anesthesia machine (RC2, Vetequip, Pleasanton, Calif.). The animals are placed on a heated board where temperature is maintained between 36-38° C. One ear lobe is glued flat to a glass slide positioned approximately 2 mm beneath a fiber optic bundle for recording fluorescence from a test compound passing through the ear. After a 100 second baseline recording, 1 mL of a 2 mM solution is injected into the tail-vein of the rat and the fluorescence signal corresponding to plasma and tissue distribution and subsequent renal clearance of the compound is monitored at the ear. The pharmacokinetic parameters of the compounds are analyzed using WinNonLin pharmacokinetic modeling software (Pharsight, Mountain View, Calif.) and Microsoft (Redmond, Wash.) Excel. This method is used to detect renally excretable compounds of the invention and FIG. 6 provides a plot illustrating non-invasive in vivo fluorescence as a function of time following delivery of a renally excretable compound.
3.5. Optical monitoring apparatus and protocol. A nominal 473 nm solid state laser source (100) is employed (Power Technology model LDCU12/7314). […]

[4] = Invasive pharmacokinetic (PK) studies (plasma concentration by HPLC); type: in vivo, Sprague-Dawley rats; conditions: rat, 1 mL of 2 mM solution i.v., plasma samples 0-120 min, mean ± SEM; for clearance: male, Sprague-Dawley, iv
Protocol: 3.6. Invasive pharmacokinetic (PK) studies. Male Sprague-Dawley rats (330-380 g) are anesthetized by Inactin (I.P.). Rats are surgically instrumented with a trachea tube (PE-190) to facilitate breathing and femoral artery and vein catheters (PE-50 filled with 20 units/mL heparinized saline) for blood sampling and drug administration respectively. After administration of 1 mL of a 2 mM solution of agent, approximately 200 μL of blood is sampled and placed into a heparinized tube (Microtainer Brand Tube w/Lithium Heparin, BD 365971) at 0, 1, 6, 12, 18, 30, 45, 60, 90, 120 min. The concentration of compound in each centrifuged plasma sample is determined via HPLC analysis using a set of external calibration standards and fluorescence detection. The resulting pharmacokinetic parameters of the compound are analyzed using WinNonLin pharmacokinetic modeling software (Pharsight, Mountain View, Calif.). This method is used to detect renally excretable compounds of the invention and FIG. 8 provides a plot illustrating invasive PK (plasma concentration) as a function of time following delivery of a renally excretable compound.

| Structure (SMILES) | Photophysical Properties Emission λmax [1] [nm] | Photophysical Properties Excitation λmax [1] [nm] | Percent in Urine (6 hrs) [2] | Tissue clearance (Optical) T1/2β [3] | clearance [4] [mL/min] | Plasma PK Clearance T1/2β [4] |
| --- | --- | --- | --- | --- | --- | --- |
| CCCNc1nc(C(=O)NCCOCCOCCOCCOCCOCCOCCOCCOCCOCCOCCOCCOCCOCCOCCOCCOCCOCCOCCOCCOCCOCCOCCOCCOC)c(NCCC)nc1C(=O)NCCOCCOCCOCCOCCOCCOCCOCCOCCOCCOCCOCCOCCOCCOCCOCCOCCOCCOCCOCCOCCOCCOCCOCCOC [Compound 4, 3,6-Bis(propylamino)-N^2,N^5-di(2,5,8,11,14,17,20,23,26,29,32,35,38,41,44,47,50,53,56,59,62,65,68,71-tetracosaoxatriheptacontan-73-yl)pyrazine-2,5-dicarboxamide] | 611 | 501 | 85 ± 2 (3) Percent | 20.5 ± 2.5 (3) min | 4.3 ± 1.1 | 15.2 ± 6.7 (2) min |
| CCCNc1nc(C(=O)NCCNC(=O)CCOCCOCCOCCOCCOCCOCCOCCOCCOCCOCCOCCOC)c(NCCC)nc1C(=O)NCCNC(=O)CCOCCOCCOCCOCCOCCOCCOCCOCCOCCOCCOCCOC [Compound 1, N^2,N^5-Bis(38-oxo-2,5,8,11,14,17,20,23,26,29,32,35-dodecaoxa-39-azahentetracontan-41-yl)-3,6-bis(propylamino)pyrazine-2,5-dicarboxamide] | 613 | 498 | – | – | 3 ± 0.2 | 21.7 ± 1.3 (3)^b min |
